Results taken from patent publication US10106556B2, “Heterocyclic compound” (TAKEDA PHARMACEUTICAL COMPANY LIMITED, priority 2015, dated 2018).

molecular target: T1, His-hMAGL (recombinant polyhistidine tagged human MAGL protein) (Homo sapiens, UniProt Q99685); experiment: Measurement of MAGL inhibitory activity (arachidonic acid production from 2-arachidonylglycerol, RapidFire-mass spectrometry); assay type: biochemical; conditions: MAGL inhibitory rate at 10 μM test compound; 60 min preincubation with His-hMAGL, 2-arachidonylglycerol substrate, 10 min reaction at room temperature
T1 construct: made in house; host or cells: E. coli BL21(DE3)
T1 sequence (Q99685 1-303): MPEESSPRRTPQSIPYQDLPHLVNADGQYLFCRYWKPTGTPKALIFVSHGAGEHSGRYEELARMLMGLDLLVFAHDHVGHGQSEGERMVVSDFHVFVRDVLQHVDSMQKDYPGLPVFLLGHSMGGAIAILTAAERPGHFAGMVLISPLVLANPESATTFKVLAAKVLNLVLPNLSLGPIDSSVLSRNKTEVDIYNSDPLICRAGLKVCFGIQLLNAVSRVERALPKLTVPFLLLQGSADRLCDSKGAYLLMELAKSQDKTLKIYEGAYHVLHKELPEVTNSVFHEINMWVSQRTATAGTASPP
Outline: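 Inhibition (%) was derived from arachidonic acid levels relative to enzyme-free and compound-free groups. Product was measured by online C4 solid-phase extraction and triple-quadrupole MS in negative SRM mode, corrected by arachidonic acid-d8 (3 μM in the acetonitrile added). Substrate was 2-arachidonylglycerol; enzyme was His-tagged recombinant human MAGL.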

SMILES	inhibition at 10 µM
O=C1COc2cc(F)c(C(=O)N3CC(OCc4ccccc4Cl)C3)cc2N1 [Example 342, 6-((3-((2-chlorobenzyl)oxy)azetidin-1-yl)carbonyl)-7-fluoro-2H-1,4-benzoxazin-3(4H)-one]	102%
CN1CC=C(c2cc(Cl)ccc2OCC2CN(C(=O)c3cc4c(cc3F)OCC(=O)N4)C2)CC1 [Example 212, 6-((3-((4-chloro-2-(1-methyl-1,2,3,6-tetrahydropyridin-4-yl)phenoxy)methyl)azetidin-1-yl)carbonyl)-7-fluoro-2H-1,4-benzoxazin-3(4H)-one]	94%
COc1ccccc1-c1ccccc1OCC1CN(C(=O)c2cc3c(cc2F)OCC(=O)N3)C1 [Example 174, 7-fluoro-6-((3-(((2′-methoxybiphenyl-2-yl)oxy)methyl)azetidin-1-yl)carbonyl)-2H-1,4-benzoxazin-3(4H)-one]	102%
O=C1COc2ccc(C(=O)N3CC(OCc4ccc(Cl)cc4Cl)C3)cc2N1 [Example 325, 6-((3-((2,4-dichlorobenzyl)oxy)azetidin-1-yl)carbonyl)-2H-1,4-benzoxazin-3(4H)-one]	101%
CC(Oc1ccc(F)cc1Cl)C1CCN(C(=O)c2cc3c(cc2F)OCC(=O)N3)CC1 (centres unmarked) [Example 293, 6-((4-(1-(2-chloro-4-fluorophenoxy)ethyl)piperidin-1-yl)carbonyl)-7-fluoro-2H-1,4-benzoxazin-3(4H)-one]	102%
O=C1COc2cc(F)c(C(=O)N3CCC(O)(COc4ccc(Cl)cc4Cl)CC3)cc2N1 [Example 74, 6-((4-((2,4-dichlorophenoxy)methyl)-4-hydroxypiperidin-1-yl)carbonyl)-7-fluoro-2H-1,4-benzoxazin-3(4H)-one]	102%
O=C1COc2ccc(C(=O)N3CCC(COc4ccnc(Cl)c4Cl)CC3)cc2N1 [Example 46, 6-((4-(((2,3-dichloropyridin-4-yl)oxy)methyl)piperidin-1-yl)carbonyl)-2H-1,4-benzoxazin-3(4H)-one]	98%
N#Cc1ccccc1COC1CN(C(=O)c2cc3c(cc2F)OCC(=O)N3)C1 [Example 333, 2-(((1-((7-fluoro-3-oxo-3,4-dihydro-2H-1,4-benzoxazin-6-yl)carbonyl)azetidin-3-yl)oxy)methyl) benzonitrile]	101%
O=C(c1ccc2oc(=O)[nH]c2c1)N1CCC(COc2ccccc2Cl)CC1 [Example 29, 5-((4-((2-chlorophenoxy)methyl)piperidin-1-yl)carbonyl)-1,3-benzoxazol-2(3H)-one]	96%
O=C1COc2cc(F)c(C(=O)N3CCC(COc4cccc5ccnn45)CC3)cc2N1 [Example 275, 7-fluoro-6-((4-((pyrazolo[1,5-a]pyridin-7-yloxy)methyl)piperidin-1-yl)carbonyl)-2H-1,4-benzoxazin-3(4H)-one]	99%
O=C1COc2ccc(C(=O)N3CCC(COc4ccc(OC(F)(F)F)cc4)CC3)cc2N1 [Example 55, 6-((4-((4-(trifluoromethoxy)phenoxy)methyl)piperidin-1-yl)carbonyl)-2H-1,4-benzoxazin-3(4H)-one]	96%
Cc1ccc(OCC2CCN(C(=O)c3ccc4c(c3)NC(=O)CO4)CC2)c(C)n1 [Example 38, 6-((4-(((2,6-dimethylpyridin-3-yl)oxy)methyl)piperidin-1-yl)carbonyl)-2H-1,4-benzoxazin-3(4H)-one]	84%
N#Cc1ccc(COC2CN(C(=O)c3cc4c(cc3F)OCC(=O)N4)C2)cc1 [Example 335, 4-(((1-((7-fluoro-3-oxo-3,4-dihydro-2H-1,4-benzoxazin-6-yl)carbonyl)azetidin-3-yl)oxy)methyl) benzonitrile]	102%
Cc1cccc(COC2CN(C(=O)c3cc4c(cc3F)OCC(=O)N4)C2)c1 [Example 329, 7-fluoro-6-((3-((3-methylbenzyl)oxy)azetidin-1-yl)carbonyl)-2H-1,4-benzoxazin-3(4H)-one]	100%
N#CC1(COc2ccc(F)cc2Cl)CCN(C(=O)c2cc3c(cc2F)OCC(=O)N3)CC1 [Example 81, 4-((2-chloro-4-fluorophenoxy)methyl)-1-((7-fluoro-3-oxo-3,4-dihydro-2H-1,4-benzoxazin-6-yl)carbonyl)piperidine-4-carbonitrile]	99%
O=C1COc2ncc(C(=O)N3CCC(COc4cccc(Cl)c4Cl)CC3)cc2N1 [Example 25, 7-((4-((2,3-dichlorophenoxy)methyl)piperidin-1-yl)carbonyl)-1H-pyrido[2,3-b][1,4]oxazin-2(3H)-one]	100%

Results, then the compound that gave them:

inhibition at 10 µM	SMILES
101%	O=C1COc2cc(F)c(C(=O)N3CC(COc4ccccc4C4CC4)C3)cc2N1 [Example 168, 6-((3-((2-cyclopropylphenoxy)methyl)azetidin-1-yl)carbonyl)-7-fluoro-2H-1,4-benzoxazin-3(4H)-one]
103%	O=C1COc2cc(F)c(C(=O)N3CC(COc4ccc(C(F)(F)F)cc4Cl)C3)cc2N1 [Example 116, 6-((3-((2-chloro-4-(trifluoromethyl)phenoxy)methyl)azetidin-1-yl)carbonyl)-7-fluoro-2H-1,4-benzoxazin-3(4H)-one]
102%	O=C1COc2cc(F)c(C(=O)N3CC(OCc4ccc(Cl)cc4Cl)C3)cc2N1 [Example 324, 6-((3-((2,4-dichlorobenyzl)oxy)azetidin-1-yl)carbonyl)-7-fluoro-2H-1,4-benzoxazin-3(4H)-one]
99%	O=C1COc2cc(F)c(C(=O)N3CC(COc4ccc(-c5cccnc5Cl)cc4F)C3)cc2N1 [Example 232, 6-((3-((4-(2-chloropyridin-3-yl)-2-fluorophenoxy)methyl)azetidin-1-yl)carbonyl)-7-fluoro-2H-1,4-benzoxazin-3(4H)-one]
103%	CC(C)Cn1cc(-c2cc(Cl)ccc2OCC2CN(C(=O)c3cc4c(cc3F)OCC(=O)N4)C2)cn1 [Example 224, 6-((3-((4-chloro-2-(1-isobutyl-1H-pyrazol-4-yl)phenoxy)methyl)azetidin-1-yl)carbonyl)-7-fluoro-2H-1,4-benzoxazin-3(4H)-one]
100%	N#Cc1ccc(OCC2CCN(C(=O)c3cc4c(cc3F)OCC(=O)N4)CC2)c(Cl)c1 [Example 70, 3-chloro-4-((1-((7-fluoro-3-oxo-3,4-dihydro-2H-1,4-benzoxazin-6-yl)carbonyl)piperidin-4-yl)methoxy)benzonitrile]
102%	Cc1ccc(OCC2CN(C(=O)c3cc4c(cc3F)OCC(=O)N4)C2)c(C)n1 [Example 141, 6-((3-(((2,6-dimethylpyridin-3-yl)oxy)methyl)azetidin-1-yl)carbonyl)-7-fluoro-2H-1,4-benzoxazin-3(4H)-one]
100%	O=C1COc2cc(F)c(C(=O)N3CC(COc4ccc(N5CC(F)C5)cc4Cl)C3)cc2N1 [Example 291, 6-((3-((2-chloro-4-(3-fluoroazetidin-1-yl)phenoxy)methyl)azetidin-1-yl)carbonyl)-7-fluoro-2H-1,4-benzoxazin-3(4H)-one]
102%	O=C1COc2cc(F)c(C(=O)N3CC(COc4cc(F)cc(Cl)c4)C3)cc2N1 [Example 134, 6-((3-((3-chloro-5-fluorophenoxy)methyl)azetidin-1-yl)carbonyl)-7-fluoro-2H-1,4-benzoxazin-3(4H)-one]
104%	O=C1COc2cc(F)c(C(=O)N3CC(COc4ccc(Cl)cc4-c4cnn(C(F)F)c4)C3)cc2N1 [Example 214, 6-((3-((4-chloro-2-(1-(difluoromethyl)-1H-pyrazol-4-yl)phenoxy)methyl)azetidin-1-yl)carbonyl)-7-fluoro-2H-1,4-benzoxazin-3(4H)-one]
100%	CC(C)(C)c1ccccc1OCC1CN(C(=O)c2cc3c(cc2F)OCC(=O)N3)C1 [Example 167, 6-((3-((2-tert-butylphenoxy)methyl)azetidin-1-yl)carbonyl)-7-fluoro-2H-1,4-benzoxazin-3(4H)-one]
100%	O=C1COc2cc(F)c(C(=O)N3CC(COc4ccc5cn[nH]c5c4)C3)cc2N1 [Example 157, 7-fluoro-6-((3-((1H-indazol-6-yloxy)methyl)azetidin-1-yl)carbonyl)-2H-1,4-benzoxazin-3(4H)-one]
101%	O=C1COc2cc(F)c(C(=O)N3CC(COc4ccc5c(c4)OCC5)C3)cc2N1 [Example 273, 6-((3-((2,3-dihydro-1-benzofuran-6-yloxy)methyl)azetidin-1-yl)carbonyl)-7-fluoro-2H-1,4-benzoxazin-3(4H)-one]
101%	O=C1COc2cc(F)c(C(=O)N3CC(COc4cccc(Cl)c4)C3)cc2N1 [Example 112, 6-((3-((3-chlorophenoxy)methyl)azetidin-1-yl)carbonyl)-7-fluoro-2H-1,4-benzoxazin-3(4H)-one]
99%	COc1cc2c(cc1C(=O)N1CC(COc3ccc(F)cc3Cl)C1)NC(=O)CO2 [Example 98, 6-((3-((2-chloro-4-fluorophenoxy)methyl)azetidin-1-yl)carbonyl)-7-methoxy-2H-1,4-benzoxazin-3(4H)-one]

same assay, conditions: MAGL inhibitory rate at 10 μM test compound; 60 min preincubation with His-hMAGL, 2-arachidonylglycerol substrate, 10 min reaction at room temperature; 10 µM

% inhibition (10 μM)	SMILES
101%	CC(Oc1ccc(F)c(F)c1)C1CN(C(=O)c2cc3c(cc2F)OCC(=O)N3)C1 (centres unmarked) [Example 312, 6-((3-(1-(3,4-difluorophenoxy)ethyl)azetidin-1-yl)carbonyl)-7-fluoro-2H-1,4-benzoxazin-3(4H)-one]
